According to patent US9404081B2, “Pyruvate kinase activators for use in therapy” (AGIOS PHARMACEUTICALS, INC., priority 2011, dated 2016):

Assays:
Format in all cases: biochemical
[1] = target: PKR R510Q (Homo sapiens, UniProt P30613, R510Q); assay: PKR R510Q Single Point Percent Activation Assay; settings: for activation at 1 µM: read-out: Act. % 510Q
In short: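 Test compound was used at a single concentration of 1 μM and preincubated 60 min at room temperature with PKR R510Q (40 ng/well). The buffer was 50 mM Tris pH 7.5, 100 mM KCl, 5 mM MgCl2, 1 mM DTT and 0.03% BSA. The reaction was started with 0.2 mM ADP and read as OD340 in an LDH-coupled system (0.11 mM PEP, 180 μM NADH).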

[2] = target: PKR R532W (Homo sapiens, UniProt P30613, R532W); assay: PKR R532W Single Point Percent Activation Assay; settings: for activation at 1 µM: read-out: Act, % 532W; for Act, % 532W: % activation at 1 μM
In short: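 PKR R532W (100 ng/well) preincubated 60 min at RT with compound at 1 μM in Tris pH 7.5, KCl, MgCl2, DTT, BSA. Reaction started with ADP (0.36 mM), with PEP 0.1 mM, NADH 180 μM and LDH coupling; read at OD340, room temperature.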

[3] = target: PKR T384W (Homo sapiens, UniProt P30613, T384W); assay: PKR T384W Single Point Percent Activation Assay; settings: for activation at 1 µM: read-out: Act. % 384W
In short: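 Soluble PKR T384W (300 ng/well) preincubated 60 min at RT with 1 μM compound in 50 mM Tris pH 7.5, 100 mM KCl, 5 mM MgCl2, 1 mM DTT, 0.03% BSA. Started with ADP (0.08 mM); PEP 0.23 mM, LDH-coupled NADH (180 μM) consumption read at OD340, room temperature.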

[4] = target: PKR wt (Homo sapiens, UniProt P30613); assay: PKR WT Single Point Percent Activation Assay
In short: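 Single concentration of 1 μM compound preincubated 60 min at RT with PKR wt (100 ng/well) in Tris pH 7.5, KCl, MgCl2, DTT, BSA. Reaction started with ADP (0.48 mM final) with PEP 0.15 mM, coupled LDH/NADH (180 μM), read at OD340, room temperature; given as percent activation.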

PKR R532W, sequence (P30613 whole entry R532W): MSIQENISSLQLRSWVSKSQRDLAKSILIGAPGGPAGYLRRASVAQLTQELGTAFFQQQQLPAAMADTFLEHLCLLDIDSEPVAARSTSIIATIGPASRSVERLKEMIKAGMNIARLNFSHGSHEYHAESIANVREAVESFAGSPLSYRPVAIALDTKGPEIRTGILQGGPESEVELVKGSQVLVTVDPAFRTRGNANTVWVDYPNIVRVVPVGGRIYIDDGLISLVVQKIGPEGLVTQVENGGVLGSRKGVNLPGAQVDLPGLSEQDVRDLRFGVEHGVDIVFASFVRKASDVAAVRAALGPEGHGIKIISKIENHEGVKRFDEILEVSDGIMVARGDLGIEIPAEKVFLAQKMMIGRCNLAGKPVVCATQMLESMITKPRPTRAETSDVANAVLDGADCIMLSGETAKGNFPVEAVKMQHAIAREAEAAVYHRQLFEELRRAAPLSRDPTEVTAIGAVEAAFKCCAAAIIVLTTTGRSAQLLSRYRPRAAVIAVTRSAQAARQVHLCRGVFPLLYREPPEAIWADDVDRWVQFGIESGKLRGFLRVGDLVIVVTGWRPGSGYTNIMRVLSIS
PKR R510Q, sequence (P30613 whole entry R510Q): as the sequence (P30613 whole entry R532W) above, with R510Q, W532R counted along it
PKR T384W, sequence (P30613 whole entry T384W): as the sequence (P30613 whole entry R532W) above, with T384W, W532R counted along it
PKR wt, sequence (P30613 whole entry): as the sequence (P30613 whole entry R532W) above, with W532R counted along it

Compound	activation at 1 µM [1] [%]	activation at 1 µM [2] [%]	activation at 1 µM [3] [%]	activation at 1 µM [4] [%]	Act, % 532W [2]	Act. % 510Q ([1]; % activation at 1 μM)	Act. % 384W ([3]; % activation at 1 μM)	Act. % WT ([4]; % activation at 1 μM)
C[C@@H]1CN(C(=O)c2ccc(NS(=O)(=O)c3cccc4cccnc34)cc2)CCN1Cc1ccccc1	101 to 500	101 to 500	101 to 500	101 to 500	–	–	–	–
CC(C)OC(=O)N1CCN(C(=O)c2ccc(NS(=O)(=O)c3cccc4cccnc34)cc2)[C@@H](C)C1	101 to 500	101 to 500	1 to 100	1 to 100	–	–	–	–
C[C@H]1CN(C(=O)OCC2CC2)CCN1C(=O)c1ccc(NS(=O)(=O)c2cccc3cccnc23)cc1	1 to 100	101 to 500	101 to 500	101 to 500	–	–	–	–
C[C@@H]1CN(C(=O)OCC2CC2)CCN1C(=O)c1ccc(NS(=O)(=O)c2cccc3cccnc23)cc1	1 to 100	101 to 500	1 to 100	1 to 100	–	–	–	–
COc1ccccc1N1C[C@@H](C)N(C(=O)c2ccc(NS(=O)(=O)c3cccc4cccnc34)cc2)[C@@H](C)C1	101 to 500	101 to 500	101 to 500	101 to 500	–	–	–	–
C[C@@H]1CN(CC2CC2)CCN1C(=O)c1ccc(NS(=O)(=O)c2cccc3cccnc23)cc1	101 to 500	1 to 100	101 to 500	101 to 500	–	–	–	–
C[C@@H]1CN(CC2CCCC2)CCN1C(=O)c1ccc(NS(=O)(=O)c2cccc3cccnc23)cc1	1 to 100	1 to 100	101 to 500	1 to 100	–	–	–	–
C[C@@H]1CN(CC2CCOC2)CCN1C(=O)c1ccc(NS(=O)(=O)c2cccc3cccnc23)cc1 (stereo partly shown)	101 to 500	101 to 500	101 to 500	101 to 500	–	–	–	–
C[C@@H]1CN(C(=O)c2ccccn2)C[C@H](C)N1C(=O)c1ccc(NS(=O)(=O)c2cccc3cccnc23)cc1	1 to 100	1 to 100	1 to 100	101 to 500	–	–	–	–
CCOC(=O)N1[C@H](C)CN(C(=O)c2ccc(NS(=O)(=O)c3cccc4cccnc34)cc2)C[C@@H]1C	101 to 500	101 to 500	101 to 500	101 to 500	–	–	–	–
C[C@@H]1CN(Cc2ccc(F)c(F)c2F)CCN1C(=O)c1ccc(NS(=O)(=O)c2cccc3cccnc23)cc1	101 to 500	1 to 100	101 to 500	1 to 100	–	–	–	–
C[C@@H]1CN(Cc2cc(F)cc(F)c2)CCN1C(=O)c1ccc(NS(=O)(=O)c2cccc3cccnc23)cc1	1 to 100	1 to 100	1 to 100	1 to 100	–	–	–	–
C[C@@H]1CN(Cc2cc(F)c(F)cc2F)CCN1C(=O)c1ccc(NS(=O)(=O)c2cccc3cccnc23)cc1	1 to 100	1 to 100	1 to 100	1 to 100	–	–	–	–
C[C@@H]1CN(C(=O)OCCC2CCCCC2)CCN1C(=O)c1ccc(NS(=O)(=O)c2cccc3cccnc23)cc1	1 to 100	1 to 100	1 to 100	1 to 100	–	–	–	–
C[C@@H]1CN(C(=O)OCCC2CCCC2)CCN1C(=O)c1ccc(NS(=O)(=O)c2cccc3cccnc23)cc1	1 to 100	1 to 100	1 to 100	1 to 100	–	–	–	–
C[C@@H]1CN(C(=O)OC2CCCCC2)CCN1C(=O)c1ccc(NS(=O)(=O)c2cccc3cccnc23)cc1	1 to 100	1 to 100	1 to 100	1 to 100	–	–	–	–
C[C@@H]1CN(C(=O)OC2CCOCC2)CCN1C(=O)c1ccc(NS(=O)(=O)c2cccc3cccnc23)cc1	1 to 100	1 to 100	1 to 100	1 to 100	–	–	–	–
C[C@@H]1CN(Cc2ccc(Cl)c(F)c2)CCN1C(=O)c1ccc(NS(=O)(=O)c2cccc3cccnc23)cc1	1 to 100	101 to 500	1 to 100	101 to 500	–	–	–	–
C[C@@H]1CN(C(=O)O[C@@H]2CCOC2)CCN1C(=O)c1ccc(NS(=O)(=O)c2cccc3cccnc23)cc1	1 to 100	101 to 500	1 to 100	101 to 500	–	–	–	–

Compound	activation at 1 µM [1] [%]	activation at 1 µM [2] [%]	activation at 1 µM [3] [%]	activation at 1 µM [4] [%]	Act, % 532W [2]	Act. % 510Q ([1]; % activation at 1 μM)	Act. % 384W ([3]; % activation at 1 μM)	Act. % WT ([4]; % activation at 1 μM)
C[C@@H]1CN(C(=O)OC2CCCOC2)CCN1C(=O)c1ccc(NS(=O)(=O)c2cccc3cccnc23)cc1 (stereo partly shown)	101 to 500	101 to 500	101 to 500	101 to 500	–	–	–	–
C[C@@H]1CN(C(=O)OCC2CCCO2)CCN1C(=O)c1ccc(NS(=O)(=O)c2cccc3cccnc23)cc1 (stereo partly shown)	1 to 100	1 to 100	1 to 100	101 to 500	–	–	–	–
C[C@@H]1CN(C(=O)OC2CCCC2)CCN1C(=O)c1ccc(NS(=O)(=O)c2cccc3cccnc23)cc1	101 to 500	101 to 500	101 to 500	101 to 500	–	–	–	–
COc1cccc(CN2CCN(C(=O)c3ccc(NS(=O)(=O)c4cccc5cccnc45)cc3)[C@H](C)C2)c1OC	1 to 100	101 to 500	101 to 500	101 to 500	–	–	–	–
C[C@@H]1CN(Cc2ccc(F)cc2)CCN1C(=O)c1ccc(NS(=O)(=O)c2cccc3cccnc23)cc1	1 to 100	101 to 500	101 to 500	101 to 500	–	–	–	–
C[C@@H]1CN(Cc2c(F)ccc(F)c2F)CCN1C(=O)c1ccc(NS(=O)(=O)c2cccc3cccnc23)cc1	1 to 100	101 to 500	101 to 500	101 to 500	–	–	–	–
CC(c1ccc(F)cc1)N1CCN(C(=O)c2ccc(NS(=O)(=O)c3cccc4cccnc34)cc2)[C@H](C)C1 (stereo partly shown)	101 to 500	101 to 500	101 to 500	101 to 500	–	–	–	–
CC[C@H]1CN(Cc2ccc(F)cc2)CCN1C(=O)c1ccc(NS(=O)(=O)c2cccc3cccnc23)cc1	1 to 100	101 to 500	101 to 500	101 to 500	–	–	–	–
CC(c1cc(F)cc(F)c1)N1CCN(C(=O)c2ccc(NS(=O)(=O)c3cccc4cccnc34)cc2)[C@H](C)C1 (stereo partly shown)	101 to 500	101 to 500	101 to 500	101 to 500	–	–	–	–
CC[C@H]1CN(Cc2cc(F)cc(F)c2)CCN1C(=O)c1ccc(NS(=O)(=O)c2cccc3cccnc23)cc1	101 to 500	101 to 500	101 to 500	101 to 500	–	–	–	–
C[C@H]1CN(Cc2cc(F)cc(F)c2F)CCN1C(=O)c1ccc(NS(=O)(=O)c2cccc3cccnc23)cc1	1 to 100	1 to 100	101 to 500	101 to 500	–	–	–	–
C[C@H]1CN(Cc2ccc(Cl)c(F)c2)CCN1C(=O)c1ccc(NS(=O)(=O)c2cccc3cccnc23)cc1	101 to 500	101 to 500	1 to 100	101 to 500	–	–	–	–
C[C@H]1CN(CC2CCOC2)CCN1C(=O)c1ccc(NS(=O)(=O)c2cccc3cccnc23)cc1 (stereo partly shown)	101 to 500	1 to 100	1 to 100	101 to 500	–	–	–	–
C[C@H]1CN(CC2CCCC2)CCN1C(=O)c1ccc(NS(=O)(=O)c2cccc3cccnc23)cc1	101 to 500	1 to 100	101 to 500	101 to 500	–	–	–	–
C[C@H]1CN(Cc2c(F)ccc(F)c2F)CCN1C(=O)c1ccc(NS(=O)(=O)c2cccc3cccnc23)cc1	1 to 100	1 to 100	101 to 500	101 to 500	–	–	–	–
C[C@H]1CN(Cc2cc(F)cc(F)c2)CCN1C(=O)c1ccc(NS(=O)(=O)c2cccc3cccnc23)cc1	101 to 500	1 to 100	101 to 500	101 to 500	–	–	–	–
C[C@H]1CN(Cc2ccc(F)c(F)c2F)CCN1C(=O)c1ccc(NS(=O)(=O)c2cccc3cccnc23)cc1 [drawing 66]	1 to 100	–	1 to 100	1 to 100	A (a % activation at 1 μM of from 1 to 100)	–	–	–
C[C@H]1CN(Cc2ccc(F)c(F)c2F)CCN1C(=O)c1ccc(NS(=O)(=O)c2cccc3cccnc23)cc1 [drawing 87]	–	–	–	–	B (a % activation at 1 μM of from 101 to 500)	A (a % activation at 1 μM of from 1 to 100)	A (a % activation at 1 μM of from 1 to 100)	A (a % activation at 1 μM of from 1 to 100)
